What was measured:
S. aureus biofilms = assay: Biofilm assay: S. aureus biofilms in 96 well plates or plate inserts, safranin stain or SEM; type: cell-based; conditions: 50 μg/ml in PBS, three hours
S. aureus strain SA5 = assay: Killing of bacteria in lysostaphin-coated polystyrene wells; type: cell-based; conditions: for CFU (n = 2): Table 13, Polystyrene
Method: Six wells were incubated with 300 μl of either 10 mg/ml, 1 mg/ml or 100 μg/ml of lysostaphin diluted in PBS. All the samples were done in duplicates. The plate was allowed to incubate overnight at 4° C. The following morning the wells were washed with 1 ml of PBS ten times, using vacuum suction to clean out the wells. S. aureus strain SA5 was diluted in PBS to a percent transmittance of 40. A 1:10,000 dilution of this solution was made, and 300 μl was added to each well. The plates were put in a shaking incubator at 75 rpm for two hours at 37° C. After two hours, 40 μl from each well was taken out and plated onto a blood agar plate and put in the incubator overnight at 37° C. The colonies on the plates were counted the following morning.
Coating of polystyrene wells. Wells were coated with 300 μl of 10 mg/ml, 1 mg/ml or 0.1 mg/ml of lysostaphin diluted in PBS. The plate was incubated overnight at 4° C. Wells were washed with 1 ml of PBS ten times, and washes were removed by vacuum suction. 300 μl of a 5×10^4 CFU/ml solution of S. aureus was added to each well. The plate was shaken at 75 rpm for two hours at 37° C. 40 μl from each well was then removed and streaked onto a blood agar plate and incubated overnight at 37° C.

S. aureus = assay: Lysostaphin activity on catheters in presence of serum proteins; type: cell-based
S. epidermidis biofilms = assay: Disruption of S. epidermidis biofilms on glass chamber slide; type: cell-based; set-up: dose or concentration left out as unconfirmed
From the text: Three S. epidermidis strains with various capacities for glycocalyx (slime) production were examined including, S. epidermidis strain Hay (a low slime producer), S. epidermidis strain SEI 175 (a moderate slime producer) and S. epidermidis ATCC 35984 (a high slime producer). All three of these S. epidermidis strains produced biofilms on a glass chamber slide (FIG. 9) with ATCC 35984 producing the thickest and most darkly staining biofilm as expected. […] S. aureus strain SA113 was included in this experiment as a control. […] The stained material visible in lysostaphin treated wells is extracellular glycocalyx which stained pink by safranin and contained no intact gram positive S. epidermidis cells, only cellular debris.

[1] = tested on: Methicillin-Resistant S. aureus; assay: Treatment of established infection in jugular vein catheterized mice; type: in vivo
Method: (§1) Jugular vein catheterized mice (Charles River Labs) were used. The mice were challenged through the tail vein with S. aureus (10^3-10^4CFU, a much lower dose than the 5×10^6 CFU or greater typically necessary to establish an infection in mice not catheterized). Treatment began four days post challenge when infection was established. Lysostaphin was administered through the indwelling catheter in a volume of 200 μ PBS (in the case of methicillin resistant S. aureus, nafcillin was added to the treatment). After the final treatment of the day, 50 μl of a lock solution (50% sterile glucose solution) with lysostaphin (and nafcillin, when used), added at the same concentration as used for treatment, was put in the catheters. Control mice received equal treatments with PBS and lock solution alone.
(§2) On the day following the last treatment the liver, heart and a portion of the catheter in the heart were harvested. The catheter portions were sonicated to release bacteria.

[2] = tested on: Methicillin Sensitive S. aureus; assay: as above; type: in vivo
Method: as §1, §2

SA5 [3] = assay: Long-term leaching of lysostaphin from coated catheters; type: cell-based, S. aureus
Method: Long-term Leaching of Lysostaphin. Ten lysostaphin-coated catheters (10 mg/ml coating concentration) were incubated with PBS for 2 hours at 37° C. The catheters were then washed and two of the ten lysostaphin coated catheters were incubated with 200 μl of a 5×10^4 CFU/ml solution of SA5 for 2 hours at 37° C. The effluent was streaked on to blood agar plates and incubated at 37° C. overnight. The rest of the catheters were incubated with fresh PBS and left at 37° C. overnight. The following day, all eight catheters were washed out and two of the catheters were incubated with bacteria as above. The other six catheters were again incubated with fresh PBS and left at 37° C. overnight. This procedure was repeated everyday for four days.

SA5 [4] = assay: Adherence of bacteria to catheters; type: cell-based, S. aureus
Method: Adherence of Bacteria to Catheters. Lysostaphin coated catheters were placed in 2 ml of a 0.1 mg/ml solution of lysostaphin for 2 hours with shaking at 37° C. to coat the outside of the catheter. They were then washed and placed in a 5×10^4 CFU/ml solution of SA5 and incubated for 3 hours at 37° C. 40 μl of the bacterial solution was streaked on to blood agar plates and incubated at 37° C. overnight. The catheters were incubated in 2 ml TSB overnight at 37° C. and examined for growth. Untreated catheters were washed with 50 ml PBS and then inoculated with 120 μl of a 5×10^6 CFU/ml solution of bacteria and incubated for 2 or 24 hours. The catheter effluent was then streaked onto blood agar plates and placed at 37° C. overnight. The catheters were washed with 50 ml PBS and the last ml of wash was collected, and 100 μl was streaked onto blood agar plates and incubated at 37° C. overnight. The catheters were then incubated in 1 ml TSB at 37° C. overnight and observed for growth.

[5] = Table 7, MRSA, 20 mg/kg t.i.d. 4 days

lysostaphin
biofilm disruption (safranin stain) (S. aureus biofilms; S. aureus strain MBT 5040 (MRSA), room temperature): completely disrupted
biofilm disruption of lysostaphin-resistant strains (safranin stain) (S. aureus biofilms; lysostaphin-resistant S. aureus): failure of lysostaphin to disrupt biofilms
CFU (n = 2) (S. aureus strain SA5; coating concentration 0.1 mg/ml): 3 CFU
CFU (n = 2) (S. aureus strain SA5; coating concentration 1 mg/ml): 1 CFU
CFU (n = 2) (S. aureus strain SA5; coating concentration 10 mg/ml): 1 CFU
log reduction in bacterial counts (S. aureus strain SA5; bacteria added directly to the 0.1 mg/mL coated wells): 2.4 log
reduction in bacterial counts (S. aureus strain SA5; lysostaphin coated polystyrene wells vs control wells): 99.5%
CFU's remaining in lysostaphin coated wells, on average (S. aureus strain SA5; polystyrene wells, 610 CFU's in control wells): 3 CFU
reduction in bacterial counts (S. aureus; 0.1 mg/ml coated catheters incubated with human serum 24 hours): 99%
clearing of bacteria (S. aureus; 10 and 1 mg/ml coated catheters incubated with human serum): completely cleared the bacteria
intact bacteria on surface after treatment (microscopic examination) (S. epidermidis biofilms; three hours (data not shown)): no intact bacteria left
disruption of S. epidermidis biofilms (safranin) (S. epidermidis biofilms; three hours, strains Hay, SE1175, ATCC 35984): disrupted the biofilms of all three strains
S. aureus recovered, Heart [1, 5]: 0 CFU
S. aureus recovered, Liver [1, 5]: 0 CFU
S. aureus recovered, Heart ([1]; Table 7, MRSA, 40 mg/kg t.i.d. 4 days): 0 CFU
clearance of the S. aureus infection ([1]; lower doses or different dosing regimens (40 mg/kg once then 5 mg/kg; 3 doses of 15 mg/kg then 5 mg/kg)): did not result in complete clearance
minimum dose necessary to clear catheters in mice ([1]; three times a day for four days): 40 mg/kg
S. aureus biofilm on implanted catheters (SEM, FIG. 6) ([2]; jugular vein catheterized mice after treatment): cleared the S. aureus biofilm from these catheters
dose required for clearance of an established catheter infection ([2]; methicillin sensitive S. aureus, t.i.d. for 4 days): 20 mg/kg
log reduction in bacteria recovered vs uncoated catheters (SA5 [3]; 10 mg/ml coated catheters, two-hour incubation with PBS): 2.8 log
log reduction in bacterial counts (SA5 [3]; PBS incubation 24 hours): 1.8 log
log reduction in bacterial counts (SA5 [3]; PBS incubation 48 hours): 1.5 log
log reduction in bacterial counts (SA5 [3]; PBS incubation 72 hours): 0.7 log
log reduction in bacterial counts (SA5 [3]; PBS incubation 96 hours): 0.3 log
growth after overnight incubation of catheters in TSB (SA5 [4]; after 3 hours in bacterial solution): the catheters remained sterile
clearing of bacterial solution by coated catheters (SA5 [4]; catheters coated inside and outside, 5×10^4 CFU/ml SA5, 3 hrs): cleared the solution

Source: patent US7572439B2, “Enzyme disruption of bacterial biofilms” (priority 2002, dated 2009)
